Structures are written as SMILES. Counter-ions that a name gives are not always drawn. A value given as a limit tells only on which side of the number the result lay.

In this test the target is NDM-1 (Klebsiella pneumoniae, UniProt C7C422). The test is described as follows: biochemical. To be noted: NDM-1 2.5 nM, 100 μM imipenem as substrate, 100 μM ZnSO4, pH 7.5, 30° C. As to the method: Amplification was carried out by a polymerase chain reaction (PCR) with Pyrobest DNA polymerase (Takara Bio) in which a plasmid having an NDM-1 gene sequence (GenBank Accession number: FN396876) synthesized by Life Technologies Japan Ltd. (consignment synthesis) was used as a template and two primers ([…] and […]) were used. The amplified DNA fragments were digested with restriction enzymes Nco I and Xho I and were incorporated in a vector pET-28a(+) to acquire a recombinant plasmid. The plasmid was transformed into E. coli BL21(DE3) (Novagen), and the transformants thus obtained were grown to an absorbance at 600 nm of about 0.7 in 0.8 L of an SB medium (1.2% (w/v) bacto tryptone, 2.4% (w/v) yeast extract, 0.5% (v/v) glycerol, 0.072 M dipotassium hydrogenphosphate, and 0.028 M potassium dihydrogenphosphate) containing 30 μg/ml kanamycin. Isopropyl-β-D-thiogalactopyranoside was added to a final concentration of 1 mM, and induction was carried out at 20° C. overnight, followed by harvesting with a centrifuge.
NDM-1, sequence (C7C422 29-270, looked up): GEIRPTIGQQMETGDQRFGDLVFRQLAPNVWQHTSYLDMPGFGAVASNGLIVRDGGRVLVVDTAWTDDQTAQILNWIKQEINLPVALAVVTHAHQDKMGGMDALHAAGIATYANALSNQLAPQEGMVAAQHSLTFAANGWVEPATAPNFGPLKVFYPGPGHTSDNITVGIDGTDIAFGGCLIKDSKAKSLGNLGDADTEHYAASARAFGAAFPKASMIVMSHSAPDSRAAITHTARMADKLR
50 mM HEPES (pH 7.5), 20 μg/ml BSA, 100 μM ZnSO4, 2% DMSO, and 100 μM imipenem as a substrate (these concentrations being final concentration) were added into a 1 ml quartz cell. […] A plurality of inhibitor concentrations were studied, a sigmoid curve was prepared from each inhibitory activity, and IC50 values were calculated.
Consider `CCC/C(C(=O)O)=C(\CCC)C(=O)O` [Example 2, Disodium 2,3-di-n-propylmaleate], for which the IC50 – broadly, the concentration at which inhibition is half-maximal – fell in the range of 10 to 30 µM. The molecule `CC/C(C(=O)O)=C(\Cc1ccccc1)C(=O)O` [Example 4, Disodium 2-benzyl-3-ethylmaleate] came in with a half-maximal inhibitory concentration (IC50) of 10 to 30 µM. `CC/C(C(=O)O)=C(\Cc1ccc(O)cc1)C(=O)O` [Example 5, Disodium 3-ethyl-2-(4-hydroxybenzyl)maleate]: the IC50 was < 10 µM. Then `O=C(O)/C(Cc1ccccc1)=C(/Cc1ccccc1)C(=O)O` [Example 6, Disodium 2,3-dibenzylmaleate], with < 10 µM; and `O=C(O)/C(CCc1ccccc1)=C(/Cc1ccccc1)C(=O)O` [Example 7, Disodium 2-benzyl-3-phenethylmaleate], with < 10 µM. Take `O=C(O)/C(CCc1ccccc1)=C(/CCc1ccccc1)C(=O)O` [Example 8, Disodium 2,3-diphenethylmaleate]: the half-maximal inhibitory concentration (IC50) was < 10 µM. Take `C/C(C(=O)O)=C(/C(=O)O)C(C)C` [Example 9, Disodium 2-isopropyl-3-methylmaleate]: the half-inhibitory concentration (IC50) was in the range of 30 to 100 µM. The molecule `CC/C(C(=O)O)=C(/C(=O)O)C(C)C` [Example 10, Disodium 3-ethyl-2-isopropylmaleate] registered an IC50 of 10 to 30 µM. Take `CC(C)/C(C(=O)O)=C(/C(=O)O)C(C)C` [Example 11, Disodium 2,3-diisopropylmaleate]: the IC50 lay in the range of 10 to 30 µM. Consider `CC(C)/C(C(=O)O)=C(\Cc1ccccc1)C(=O)O` [Example 12, Disodium 3-benzyl-2-isopropylmaleate], for which the concentration for half-maximal inhibition (IC50) fell in the range of 10 to 30 µM. As to `Cc1ccccc1C/C(C(=O)O)=C(/C(=O)O)C(C)C` [Example 13, Disodium 2-isopropyl-3-(2-methylphenyl)methylmaleate], the half-inhibitory concentration (IC50) was in the range of 10 to 30 µM. Consider `CC/C(C(=O)O)=C(/C(=O)O)C1CCCC1` [Example 14, Disodium 2-cyclopentyl-3-ethylmaleate], for which the IC50 is < 10 µM. As for `CC(C)/C(C(=O)O)=C(/C(=O)O)C1CCCC1` [Example 15, Disodium 2-cyclopentyl-3-isopropylmaleate], the IC50 was < 10 µM.

Turning to `O=C(O)/C(Cc1ccccc1)=C(\C(=O)O)C1CCCC1` [Example 16, Disodium 3-benzyl-2-cyclopentylmaleate], the IC50 was < 10 µM. Regarding `O=C(O)/C(=C(\C(=O)O)C1CCCC1)C1CCCC1` [Example 17, Disodium 2,3-dicyclopentylmaleate], the IC50 was < 10 µM. Then `CC(C)/C(C(=O)O)=C(/C(=O)O)C1Cc2ccccc2C1` [Example 18, Disodium 2-(2,3-dihydro-1H-inden-2-yl)-3-isopropylmaleate], with < 10 µM; and `CC(C)/C(C(=O)O)=C(/C(=O)O)C1CCCCC1` [Example 19, Disodium 2-cyclohexyl-3-isopropylmaleate], with < 10 µM. As to `CC(C)/C(C(=O)O)=C(/C(=O)O)[C@H]1CC[C@@H](O)CC1` [Example 21, Disodium 2-(cis-4-hydroxycyclohexyl)-3-isopropylmaleate], the concentration for half-maximal inhibition (IC50) is < 10 µM.

For `CC(C)/C(C(=O)O)=C(/C(=O)O)C1CCOCC1` [Example 22, Disodium 3-isopropyl-2-(tetrahydropyran-4-yl)maleate], the IC50 was 10 to 30 µM.

Molecule `CC(C)/C(C(=O)O)=C(\Cc1cccnc1)C(=O)O` [Example 23, Disodium 2-isopropyl-3-[(pyridine-3-yl)methyl]maleate] gave a half-inhibitory concentration (IC50) of 30 to 100 µM. With `CC/C(C(=O)O)=C(\SC(C)C)C(=O)O` [Example 24, Disodium 3-ethyl-2-isopropylthiomaleate], the half-maximal inhibitory concentration (IC50) lay in the range of 30 to 100 µM. The result for `CC(C)/C(C(=O)O)=C(\Cc1ccc(C(=O)O)cc1)C(=O)O` [Example 25, Trisodium 2-(4-carboxybenzyl)-3-isopropylmaleate] reads 10 to 30 µM.

For the molecule `CC(C)/C(C(=O)O)=C(\Cc1ccc(C(N)=O)cc1)C(=O)O` [Example 26, Disodium 2-(4-carbamoylbenzyl)-3-isopropylmaleate], the IC50 was in the range of 10 to 30 µM. `CC(C)/C(C(=O)O)=C(\Cc1ccc(C(=O)N2CCOCC2)cc1)C(=O)O` [Example 27, Disodium 2-isopropyl-3-[4-(morpholine-1-carbonyl)benzyl]maleate] gave an IC50 of 10 to 30 µM.

For the molecule `CC(C)/C(C(=O)O)=C(\Cc1ccc(C(=O)N2CCC(O)CC2)cc1)C(=O)O` [Example 28, Disodium 2-[4-(4-hydroxypiperidine-1-carbonyl)benzyl]-3-isopropylmaleate], the IC50 fell in the range of 30 to 100 µM.

Turning to `CC(C)/C(C(=O)O)=C(\Cc1ccc(C(=O)NCC(N)=O)cc1)C(=O)O` [Example 29, Disodium 2-[4-(2-amino-2-oxoethylcarbamoyl)benzyl]-3-isopropylmaleate], the 50% inhibitory concentration (IC50) was < 10 µM.

Regarding `COc1ccc(C/C(C(=O)O)=C(/C(=O)O)C(C)C)cc1` [Example 30, Disodium 2-isopropyl-3-(4-methoxybenzyl)maleate], the IC50 was < 10 µM. Turning to `CC(C)/C(C(=O)O)=C(\Cc1ccc(O)cc1)C(=O)O` [Example 31, Trisodium 2-(4-oxidobenzyl)-3-isopropylmaleate], the concentration for half-maximal inhibition (IC50) lay within 10 to 30 µM. In the case of `CC(C)/C(C(=O)O)=C(\Cc1ccc(OCC(=O)O)cc1)C(=O)O` [Example 32], the IC50 was < 10 µM. For the molecule `CC(C)/C(C(=O)O)=C(\Cc1ccc(OCC(N)=O)cc1)C(=O)O` [Example 33, Disodium 2-[4-(2-amino-2-oxoethoxy)benzyl]-3-isopropylmaleate], the 50% inhibitory concentration (IC50) is < 10 µM.

Take `CC(C)/C(C(=O)O)=C(\Cc1ccc(OCCN)cc1)C(=O)O` [Example 34, Disodium 2-[4-(2-aminoethoxy)benzyl]-3-isopropylmaleate]: the IC50 was < 10 µM. For the molecule `CC(C)/C(C(=O)O)=C(\Cc1ccc(OCCn2ccnc2)cc1)C(=O)O` [Example 35, Disodium 2-{4-[2-(1H-imidazol-1-yl)ethoxy]benzyl}-3-isopropylmaleate], the IC50 was < 10 µM. For the molecule `CC(C)/C(C(=O)O)=C(\Cc1ccc(OC2CCNC2)cc1)C(=O)O` (stereo not shown) [Example 36, Disodium 2-isopropyl-3-[4-(pyrrolidin-3-yloxy)benzyl]maleate], the IC50 is < 10 µM. In the case of `CC(C)/C(C(=O)O)=C(\Cc1ccc(OCCNC(=N)N)cc1)C(=O)O` [Example 37, Disodium 2-[4-(2-guanidinoethoxy)benzyl]-3-isopropyl maleate], the IC50 lay within 30 to 100 µM. The result for `O=C(O)/C(=C(\C(=O)O)[C@H]1CC[C@@H](O)CC1)C1CCCC1` [Example 38, Disodium 2-cyclopentyl-3-(cis-4-hydroxycyclohexyl)maleate] reads < 10 µM; that for `O=C(O)/C(=C(\C(=O)O)[C@H]1CC[C@@H](O)CC1)[C@H]1CC[C@@H](O)CC1` [Example 39, Disodium 2,3-bis(cis-4-hydroxycyclohexyl)maleate], < 10 µM; that for `O=C(O)/C(=C(\C(=O)O)C1CCOCC1)C1CCOCC1` [Example 40, Disodium 2,3-bis(tetrahydro-2H-pyran-4-yl)maleate], 30 to 100 µM.
